Assay: Crystal precipitability of lidocaine in the tape preparation / ionic liquid
Type: physicochemical
Conditions: room temperature for several months
Description: A content initially inducing the crystal precipitation of lidocaine was examined. […] The crystal precipitability and transdermal absorbability therefor were evaluated. Lidoderm (registered trade name, from Endo, lidocaine content: 5%) was used as a standard material. […]

CC(O)C(=O)O.CCN(CC)CC(=O)Nc1c(C)cccc1C [lactic acid salt of lidocaine]
Crystal precipitation on storage: no crystal precipitation occurred

From patent publication US8722065B2, “Lidocaine tape preparation” (priority 2007, dated 2014)
